From publication PMC5803267, “A small molecule inhibitor of Rheb selectively targets mTORC1 signaling” (Nature Communications, 2018)

Key:
[1] = test system: mTORC1 activity (S240/244pS6) in skeletal muscle; test: PD study: feeding-induced mTORC1 activation in gastrocnemius muscle; format: in vivo, mouse; conditions: mice fasted 16 h, 30 mg kg^−1 IP, re-fed 2 h
Description: (§1) The selective inhibition of mTORC1 activation by NR1 in vitro and in cell-based systems prompted us to evaluate the effect of this compound on mTORC1 activity in vivo. […] In particular, the plasma concentration of NR1 was sustained over 5 µM for 2 h after IP administration of a 30 mg kg^−1 dose (Supplementary Fig. 10). We therefore carried out a pharmacodynamic (PD) study to evaluate the efficacy of NR1 at inhibiting mTORC1 signaling in vivo. In this experiment, mice were starved overnight to achieve a low basal level of mTORC1 activation (pre-dose). After a 16 h fast, the animals were treated with either vehicle or 30 mg kg^−1 NR1 and allowed to re-feed for 2 h before sacrifice and tissue collection. mTORC1 activity was measured by quantification of ^S240/244pS6 by Western blot analysis with a specific antibody. We chose kidney and gastrocnemius muscle as target tissues due to the relevance of mTORC1 in renal cell carcinoma[51] and angiomyolipomas in TSC and LAM[12] and for its important role in the regulation of protein synthesis and muscle mass[52]. The results are summarized in Fig. 6 for skeletal muscle and Supplementary Fig. 11 for kidney.
Fig. 6 NR1 inhibits feeding-induced mTORC1 activation in skeletal muscle. […] After 2 h, gastrocnemius muscle was collected, and ^S240/244pS6 levels were measured by Western blot and quantified. […]

[2] = Pharmacokinetic profile in mouse plasma; format: in vivo
Description: as §1
This study was conducted in accordance with the requirements for the humane care and use of animals set forth in the Animal Welfare Act, the IACUC Guide for the Care and Use of Laboratory Animals, applicable Shanghai and state laws, and regulations and policies of Shanghai ChemPartner Ltd. The animals were not randomized, and the study was not blinded. Male C57BL/6 mice (5 per treatment group, 6–7 weeks old) were fasted of food overnight for 16 hours. IP injection of compound dissolved in MC Tween (0.5% methyl cellulose and 0.1% Tween-80 in water) was given, and then the mice were allowed to feed again ad libitum until sacrifice. The animals were euthanized with CO2. Compound levels in the plasma of treated mice were measured by LC-MS/MS and compared to a standard curve of compound diluted into mouse plasma.
Supplementary Figure 10. Pharmacokinetic profile of NR1 in mouse plasma after a single 30
mg/Kg (body weight) intraperitoneal dose. The dotted line corresponds to 5 µM concentration. Error
bars represent standard deviation of the mean values for n=3 mice.

[3] = ip, mouse plasma, single 30 mg/Kg intraperitoneal dose

For `CN(C)C(=O)c1ccc(Cn2c(C(=O)O)cc3c(Br)cc(Sc4ccc(Cl)c(Cl)c4)cc32)cc1` [NR1, 4-bromo-6-(3,4-dichlorophenylthio)-1-(4-(dimethylcarbamoyl)benzyl)-1H-indole-2-carboxylic acid], the “T37/46 4E-BP1 in skeletal muscle” value [1] was “clear band shift”, the “mTORC1 activity (S240/244pS6) in skeletal muscle versus vehicle” value [1] was “significantly reduced mTORC1 activity” and the AUC(0-inf) [2, 3] was 23500 ng·h/mL. The AUC(0-t) [2, 3] was 23500 ng·h/mL, the Cmax [2, 3] was 7800 ng/mL and the Tmax [2, 3] was 0.25 h. For the same molecule, the half-life ([2]; ip, mouse plasma, single 30 mg/Kg intraperitoneal dose, read-out: Terminal t1/2 (converted)) was 2.24 h and the “plasma concentration sustained for 2 h” value ([2]; mouse, IP, 30 mg kg^−1) was “over 5 µM”.
